Measurements from the NIST ThermoML archive (doi:10.1016/j.fluid.2018.09.026).
“And” between values parts separate entries of the source, which are not always exact repeats. Identical values can stand only once.

Conditions: Liquid; for mass density: Vibrating tube method; for viscosity: Vibrating wire viscometry

OCCOCCO [diethylene glycol]
Conditions | mass density | viscosity
283.15 K, 100 kPa | 1123.1 kg/m3 | –
283.15 K, 640 kPa | 1123.3 kg/m3 | –
283.15 K, 1080 kPa | 1123.5 kg/m3 | –
283.15 K, 1590 kPa | 1123.7 kg/m3 | –
283.15 K, 2140 kPa | 1124 kg/m3 | –
283.15 K, 3050 kPa | 1124.3 kg/m3 | –
283.15 K, 5050 kPa | 1125.2 kg/m3 | –
283.15 K, 6930 kPa | 1126 kg/m3 | –
283.15 K, 9930 kPa | 1127.2 kg/m3 | –
283.15 K, 14810 kPa | 1129.3 kg/m3 | –
283.15 K, 19760 kPa | 1131.3 kg/m3 | –
283.15 K, 24610 kPa | 1133.3 kg/m3 | –
283.15 K, 29600 kPa | 1135.2 kg/m3 | –
283.15 K, 34500 kPa | 1137.1 kg/m3 | –
283.15 K, 39420 kPa | 1139 kg/m3 | –
283.15 K, 44300 kPa | 1140.8 kg/m3 | –
283.15 K, 49180 kPa | 1142.6 kg/m3 | –
283.15 K, 54060 kPa | 1144.4 kg/m3 | –
283.15 K, 59030 kPa | 1146.1 kg/m3 | –
283.15 K, 63810 kPa | 1147.8 kg/m3 | –
283.15 K, 68760 kPa | 1149.5 kg/m3 | –
293.15 K, 100 kPa | 1115.9 kg/m3 | –
293.15 K, 570 kPa | 1116.1 kg/m3 | –
293.15 K, 1080 kPa | 1116.3 kg/m3 | –
293.15 K, 1530 kPa | 1116.6 kg/m3 | –
293.15 K, 2110 kPa | 1116.8 kg/m3 | –
293.15 K, 3080 kPa | 1117.2 kg/m3 | –
293.15 K, 5040 kPa | 1118.1 kg/m3 | –
293.15 K, 6990 kPa | 1118.9 kg/m3 | –
293.15 K, 9940 kPa | 1120.2 kg/m3 | –
293.15 K, 14840 kPa | 1122.3 kg/m3 | –
293.15 K, 19740 kPa | 1124.3 kg/m3 | –
293.15 K, 24680 kPa | 1126.4 kg/m3 | –
293.15 K, 29600 kPa | 1128.4 kg/m3 | –
293.15 K, 34530 kPa | 1130.3 kg/m3 | –
293.15 K, 39360 kPa | 1132.2 kg/m3 | –
293.15 K, 44320 kPa | 1134.1 kg/m3 | –
293.15 K, 49120 kPa | 1136 kg/m3 | –
293.15 K, 54090 kPa | 1137.8 kg/m3 | –
293.15 K, 58990 kPa | 1139.6 kg/m3 | –
293.15 K, 63820 kPa | 1141.3 kg/m3 | –
293.15 K, 68750 kPa | 1143 kg/m3 | –
293.23 K, 180 kPa | – | 34.67 mPa·s [middle of 4 runs]
293.23 K, 1170 kPa | – | 34.84 mPa·s [middle of 4 runs]
293.23 K, 2100 kPa | – | 34.99 mPa·s [middle of 5 runs]
293.23 K, 2110 kPa | – | 35.15 mPa·s
293.23 K, 5060 kPa | – | 35.84 mPa·s and 36.03 mPa·s and 36.04 mPa·s
293.23 K, 5070 kPa | – | 35.72 mPa·s
293.23 K, 10240 kPa | – | 37.39 mPa·s [middle of 4 runs]
293.23 K, 19990 kPa | – | 40.52 mPa·s [middle of 4 runs]
293.23 K, 29910 kPa | – | 43.47 mPa·s and 43.45 mPa·s
293.23 K, 29920 kPa | – | 43.5 mPa·s and 43.6 mPa·s
293.23 K, 40040 kPa | – | 47.04 mPa·s [middle of 5 runs]
293.23 K, 50530 kPa | – | 51.14 mPa·s [middle of 4 runs]
293.23 K, 69900 kPa | – | 58.55 mPa·s
293.23 K, 69990 kPa | – | 58.38 mPa·s
293.23 K, 70070 kPa | – | 58.52 mPa·s
303.15 K, 100 kPa | 1108.8 kg/m3 | –
303.15 K, 680 kPa | 1109 kg/m3 | –
303.15 K, 1130 kPa | 1109.2 kg/m3 | –
303.15 K, 1580 kPa | 1109.4 kg/m3 | –
303.15 K, 2120 kPa | 1109.7 kg/m3 | –
303.15 K, 3030 kPa | 1110.1 kg/m3 | –
303.15 K, 5040 kPa | 1111 kg/m3 | –
303.15 K, 6950 kPa | 1111.9 kg/m3 | –
303.15 K, 9960 kPa | 1113.2 kg/m3 | –
303.15 K, 14840 kPa | 1115.4 kg/m3 | –
303.15 K, 19740 kPa | 1117.5 kg/m3 | –
303.15 K, 24680 kPa | 1119.6 kg/m3 | –
303.15 K, 29610 kPa | 1121.6 kg/m3 | –
303.15 K, 34520 kPa | 1123.6 kg/m3 | –
303.15 K, 39380 kPa | 1125.6 kg/m3 | –
303.15 K, 44350 kPa | 1127.5 kg/m3 | –
303.15 K, 49140 kPa | 1129.4 kg/m3 | –
303.15 K, 54090 kPa | 1131.3 kg/m3 | –
303.15 K, 58990 kPa | 1133.1 kg/m3 | –
303.15 K, 63850 kPa | 1134.9 kg/m3 | –
303.15 K, 68760 kPa | 1136.6 kg/m3 | –
303.27 K, 180 kPa | – | 21.44 mPa·s [middle of 5 runs]
303.27 K, 190 kPa | – | 21.49 mPa·s
303.27 K, 1070 kPa | – | 21.42 mPa·s
303.27 K, 1080 kPa | – | 21.42 mPa·s and 21.5 mPa·s and 21.48 mPa·s
303.27 K, 2100 kPa | – | 21.72 mPa·s and 21.69 mPa·s
303.27 K, 5160 kPa | – | 22.14 mPa·s and 22.35 mPa·s and 22.13 mPa·s
303.27 K, 5170 kPa | – | 22.08 mPa·s
303.27 K, 10180 kPa | – | 22.97 mPa·s
303.27 K, 10190 kPa | – | 23.05 mPa·s and 23.2 mPa·s and 23 mPa·s
303.27 K, 20040 kPa | – | 24.7 mPa·s and 25.05 mPa·s and 24.87 mPa·s
303.27 K, 30920 kPa | – | 26.77 mPa·s [middle of 5 runs]
303.27 K, 40100 kPa | – | 28.49 mPa·s [middle of 5 runs]
303.27 K, 50040 kPa | – | 30.4 mPa·s
303.27 K, 50050 kPa | – | 30.52 mPa·s and 30.43 mPa·s
303.27 K, 50060 kPa | – | 30.59 mPa·s
303.27 K, 50070 kPa | – | 30.49 mPa·s
303.27 K, 68860 kPa | – | 34.35 mPa·s
303.27 K, 68920 kPa | – | 34.55 mPa·s
303.27 K, 69030 kPa | – | 34.74 mPa·s
303.27 K, 69090 kPa | – | 34.81 mPa·s
313.15 K, 100 kPa | 1101.7 kg/m3 and 1101.6 kg/m3 | –
313.15 K, 640 kPa | 1101.8 kg/m3 | –
313.15 K, 1140 kPa | 1102.1 kg/m3 | –
313.15 K, 1640 kPa | 1102.3 kg/m3 | –
313.15 K, 2100 kPa | 1102.5 kg/m3 | –
313.15 K, 3090 kPa | 1103 kg/m3 | –
313.15 K, 5130 kPa | 1103.9 kg/m3 | –
313.15 K, 6960 kPa | 1104.8 kg/m3 | –
313.15 K, 9960 kPa | 1106.1 kg/m3 | –
313.15 K, 14940 kPa | 1108.4 kg/m3 | –
313.15 K, 19750 kPa | 1110.6 kg/m3 | –
313.15 K, 24640 kPa | 1112.7 kg/m3 | –
313.15 K, 29640 kPa | 1114.8 kg/m3 | –
313.15 K, 34510 kPa | 1116.9 kg/m3 | –
313.15 K, 39340 kPa | 1118.9 kg/m3 | –
313.15 K, 44340 kPa | 1120.9 kg/m3 | –
313.15 K, 49190 kPa | 1123.2 kg/m3 | –
313.15 K, 54020 kPa | 1124.7 kg/m3 | –
313.15 K, 59030 kPa | 1126.7 kg/m3 | –
313.15 K, 63880 kPa | 1128.5 kg/m3 | –
313.15 K, 68820 kPa | 1130.3 kg/m3 | –
313.38 K, 200 kPa | – | 14.25 mPa·s and 14.24 mPa·s and 14.26 mPa·s
313.38 K, 210 kPa | – | 14.23 mPa·s [middle of 5 runs]
313.38 K, 1170 kPa | – | 14.28 mPa·s and 14.27 mPa·s
313.38 K, 1180 kPa | – | 14.33 mPa·s
313.38 K, 2300 kPa | – | 14.28 mPa·s
313.38 K, 2310 kPa | – | 14.5 mPa·s
313.38 K, 2320 kPa | – | 14.38 mPa·s
313.38 K, 5060 kPa | – | 14.69 mPa·s and 14.72 mPa·s
313.38 K, 5070 kPa | – | 14.63 mPa·s and 14.65 mPa·s
313.38 K, 5080 kPa | – | 14.64 mPa·s
313.38 K, 10280 kPa | – | 15.26 mPa·s
313.38 K, 10290 kPa | – | 15.13 mPa·s
313.38 K, 10300 kPa | – | 15.2 mPa·s
313.38 K, 20100 kPa | – | 16.33 mPa·s
313.38 K, 20110 kPa | – | 16.16 mPa·s and 16.17 mPa·s
313.38 K, 30110 kPa | – | 17.27 mPa·s and 17.34 mPa·s and 17.33 mPa·s
313.38 K, 40110 kPa | – | 18.5 mPa·s [middle of 4 runs]
313.38 K, 50110 kPa | – | 19.66 mPa·s and 19.68 mPa·s
313.38 K, 50120 kPa | – | 19.64 mPa·s
313.38 K, 50130 kPa | – | 19.61 mPa·s
313.38 K, 69490 kPa | – | 22.11 mPa·s
313.38 K, 69530 kPa | – | 22.04 mPa·s
313.38 K, 69580 kPa | – | 21.98 mPa·s
323.15 K, 100 kPa | 1094.3 kg/m3 | –
323.15 K, 680 kPa | 1094.6 kg/m3 | –
323.15 K, 1130 kPa | 1094.8 kg/m3 | –
323.15 K, 1570 kPa | 1095 kg/m3 | –
323.15 K, 2100 kPa | 1095.2 kg/m3 | –
323.15 K, 3080 kPa | 1095.7 kg/m3 | –
323.15 K, 5080 kPa | 1096.7 kg/m3 | –
323.15 K, 7000 kPa | 1097.6 kg/m3 | –
323.15 K, 9950 kPa | 1099 kg/m3 | –
323.15 K, 14890 kPa | 1101.4 kg/m3 | –
